Columns and labels:
[1] = target: T1, human leukocyte elastase (HLE) (Homo sapiens, UniProt P08246); assay: HLE inhibitory activity (synthetic substrate, pNA release, absorbance 405 nm); format: biochemical; details: pH 8.6; HLE 5.63 nM, substrate 0.2625 mM; 37°C; read-out: IC₅₀ value HLE
T1 construct: the mixed solution was subjected to density gradient centrifugation, thereby obtaining neutrophiles; from tissue; host or cells: neutrophils from human vein blood (buffy coat)
T1 sequence (P08246 30-247 limits assumed): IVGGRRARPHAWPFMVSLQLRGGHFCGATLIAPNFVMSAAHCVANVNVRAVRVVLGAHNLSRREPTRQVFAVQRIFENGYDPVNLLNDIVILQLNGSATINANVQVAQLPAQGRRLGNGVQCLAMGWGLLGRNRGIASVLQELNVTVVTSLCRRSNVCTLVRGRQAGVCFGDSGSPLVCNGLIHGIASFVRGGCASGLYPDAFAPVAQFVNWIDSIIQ
Experimental: (§1) Activities of the Benzoxazine derivatives of the present invention against human leukocyte elastase (HLE), human sputum elastase (HSE), human cathepsin G (HCG), bovine pancreatic α-chmotrypsin (CYT) and bovine pancreatic trypsin (TRY) were measured by the following method.
A buffy coat was obtained by subjecting human vein blood to centrifugation. To the buffy coat was added distilled water to make a hypotonic solution, thereby bursting erythrocytes. To the residual blood cell component was added a 33.4% of Conrey 400 solution/9% Ficoll solution (the ratio of the former solution to the latter solution is 10:24), and the mixed solution was subjected to density gradient centrifugation, thereby obtaining neutrophiles. The neutrophile fraction was washed with Hanks' buffer for three times and then cells were recovered and cryopreserved at -80°C until use. The cryopreserved-cells were thawed with warm water at 37°C and suspended in a 9-fold volume of lysis buffer containing 0.1M Tris-HCl (pH7.5), 1M MgCl₂ and 0.1% Brij 35. The suspended cells are destroyed by means of polotoron with ice-cooling. The cell suspension was subjected to centrifugation at 100,000 x g for 1 hour. After removing precipitates, 2-fold volume of a Tris-HCl buffer containing 5 mM Tris-HCl(pH 7.5), 1M NaCl and 1.1% Brij 35 was added to the supernatant, thereby obtaining a crude solution of an enzyme extract. The crude solution was subjected to aprotinine affinity column and extracted with an elution buffer containing […] of glycine-HCl (pH 3.3), 1M NaCl and 0.1% Brij 35, thereby obtaining an active fraction. The obtained active fraction was further subjected to MONO S-ion-exchange chromatography and eluted with 2M NaCl linear gradient. The obtained fraction was dialyzed against 25 mM Tris-HCl (pH8.6) and lyophilized, thereby obtained an enzyme sample.
(§2) A test compound was dissolved in DMSO (for fluorometry) and prepared various concentration of the solution. To each concentration was added 2-fold volume of 0.2M Tris-HCl (pH8.6), thereby obtaining a test solution. Synthetic substrate (Funakoshi, L-1335) was dissolved in DMSO and 2-volume of 0.2M Tris-HCl (pH8.6) was added thereto, thereby obtaining a substrate solution. The reaction was performed using a microplate having 96 wells (Nunk). Six-time reactions were repeated for each concentration. One handred and forty µl of an enzyme solution containing 0.2M Tris-HCl (pH8.6), 30 µl of a test solution and 30 µl of a substrate solution per well of the microplate were respectively pre-incubated at 37°C for 10 minutes. After completion of the incubation, the enzyme solution was mixed with the test sample and incubated for 10 minutes and then the substrate solution was added to perform an enzyme reaction. The absorbance of released P-nitroanilide (PNA) was measured at the wave length of 405 nm by means of a microplate reader (MTP-100; CORONA), thereby determining the substrate decomposition. The rate of the substrate decomposition was shown as an average value of 6 repeated reactions. The inhibitory concentration of a test compound relative to the amount of the substrate decomposition in the reaction mixture without a test compound was regarded as an IC₅₀ value. The final concentration of HLE and a synthesized substrate in the reaction mixture were 5.63 nM and 0.2625 mM, respectively.

[2] = target: T2, human sputum elastase (HSE) (Homo sapiens, UniProt P08246); assay: HSE inhibitory activity (synthetic substrate, pNA release); format: biochemical; details: pH 7.0; HSE 10 nM, substrate 0.25 mM; read-out: IC₅₀ value HSE
T2 construct: human sputum elastase (HSE); purchased Sigma Inc
T2 sequence (P08246 30-267): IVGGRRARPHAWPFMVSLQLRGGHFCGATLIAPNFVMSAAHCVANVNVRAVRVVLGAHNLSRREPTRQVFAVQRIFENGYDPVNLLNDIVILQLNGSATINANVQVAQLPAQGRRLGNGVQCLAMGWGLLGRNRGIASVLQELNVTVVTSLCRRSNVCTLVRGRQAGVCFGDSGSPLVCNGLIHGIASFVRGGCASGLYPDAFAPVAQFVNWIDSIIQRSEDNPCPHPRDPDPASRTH
Experimental: as §1
as §2, with “The rate of the substrate decomposition was shown as an average value of 6 repeated reactions. The inhibitory concentration of a test compound relative to the amount of the substrate decomposition in the reaction mixture without a test compound was regarded as an IC₅₀ value. The final concentration of HLE and a synthesized substrate in the reaction mixture were 5.63 nM and 0.2625 mM, respectively.” left out

[3] = test system: neutrophiles from the human peripheral blood; assay: Human neutrophile chemotaxis suppressing activity (fMLP, chemotaxis chamber); format: cell-based; details: Concentration 12.5 µM, 10-⁷M fMLP, one hour at 37°C
Experimental: The neutrophile fraction (60% percoal fraction having neutrophile purity of 90% or more) was taken from the human peripheral blood by means of percoal density gradient centrifugation at 2300 rpm for 20 minutes.
An intercell having a pore diameter of 5 µm, containing 8 x 10⁵ of neutrophiles and the compound of the present invention adjusted in various concentrations was placed in each well of a chemotaxis chamber (KURABO), in which has been added 1300 µl of a medium containing 10-⁷M of formylmethionyl-leucyl-phenylalanine (fMLP), which is a neutrophile chemotaxis factor. After incubating for one hour at 37°C in an incubator containing 5% carbon dioxide, the number of cells migrating from the upper side of the intercell membrane into the lower side of the membrane in the chamber was counted by the following method. That is, the lower side surface of the intercell membrane was washed with PBS for 4 times and fixed with methanol and dyed with hematoxylin-eosin solution. The membrane was removed from the intercell and placed on a slide, dried in air, followed by sealing with Canada balsam. The cell number was microscopically counted in 5 visual fields. Taking average number of the five fields, the average was employed as the number of migrating cells. The value subtracting the migrating cell number in a control experiment containing no fMLP from the cell number in an experiment containing no the compound of the present invention was regarded as 100, the chemotaxis suppressing activity was determined as the following formula: Neutrophilic chemotaxis suppressing activity (%) [formula] = 100 - A/B x 100 [formula] = 100 - (C - D)/(E-D) x 100 [formula] Where: • A: chemotaxis measured in the experiment containing the compound of the present invention; • B: chemotaxis measured in the experiment not containing the compound of the present invention • C: the number of migrating cells measured in the experiment containing both the compound of the present invention and fMLP. • D: the number of migrating cells in the experiment containing neither the compound of the present invention nor fMLP. • E: the number of migrating cells in the experiment containing only fMLP.

`Cc1cccc2nc([C@@H](NC(=O)OCC(c3ccccc3)c3ccccc3)C(C)C)oc(=O)c12` [Compound 1, 2-[1(S)-[(2,2-diphenylethoxy-carbonyl)amino]-2-methylpropyl]-5-methyl-4H-3,1-benzoxazin-4-one] showed an IC50 [1] of 70 nM, an IC50 [2] of 280 nM and a Chemotaxis ([3]; experiment without compound regarded as 100) of 4.7. It also gave an activity at 12.5 µM ([3]; Homo sapiens, 1 h) of 95.3%.
